Results as given in patent US8148431B2, “Osteogenesis promoter containing β-cryptoxanthin as the active ingredient” (Kemin Health, L.C., priority 2002, dated 2012).
Marks after values point to notes of the source that are not given here.

Tests used:
[1] = tested on: metaphysis tissue of the femur (cancellous bone); test: Bone DNA level in cultured femoral metaphysis tissue pieces; type: cell-based, Wistar male rats; details: for Bone DNA level: metaphysis tissue, mean ± SE
Experimental: (§1) The femurs were extracted from rats (Wistar male rats; 4 to 5 weeks old) (purchased from Japan SLC Co., Ltd. and fed with solid Oriental yeast (MF)) under anesthesia with ether under a germfree condition. The femurs were each washed with 0.25 M sucrose solution, and then divided into the diaphysis (cortical bone) and metaphysis (cancellous bone). The bone tissue pieces were cultured in a culture medium (Dulbecco's modified culture medium containing 5% of glucose; serum-free medium) containing. β-cryptoxanthin, etc. at […] in an incubator filled with 5% CO2-95% air for 48 hours. β-cryptoxanthin used was “β-cryptoxanthin” of Extrasynthase Co., cycloheximide used was “Cycloheximide” of Sigma Co. Ltd., β-carotene was “β-carotene” of Sigma ? , xanthine was “Xanthine” of Sigma Co, Ltd., parathormone was “Parathormone” of Sigma Co. Ltd. and prostaglandin E2 was “Prostaglandin E2” of Sigma Co. Ltd. In the control, only the culture medium was used without β-cryptoxanthin or the like.
DNA level was determined as an index of the number of cells in the bone tissue. After the culture in an incubator, the tissue pieces were washed with 0.25 M sucrose solution and then the wet weight of them was determined. They were pulverized in 4 ml of 0.1 N NaOH. After the osmosis at 4° C. for 24 hours, the liquid mixture was centrifuged. The supernatant was taken as the sample and determined by a method of Ceriotti et al. (J. Biol. Chem., 241; 34-77, 1951). Namely, 1 ml of concentrated hydrochloric acid and 1 ml of 0.04% indole solution were added to 2 ml of the sample and then the resultant mixture was heated to 100° C. in boiling water. After quenching followed by the extraction with 4 ml of chloroform, the chloroform layer was taken to determine bone DNA level with a spectrophotometer (490 nm).
(§2) The bone component-increasing effect of β-cryptoxanthin was examined. The diaphysis and metaphysis tissue of the femur was cultured in the above-described culture medium containing β-cryptoxanthin ([…]) for 48 hours. Calcium level in the bone tissue, alkaline phosphatase activity (enzyme for accelerating the bone calcification) and the amount of deoxyribonucleic acid (DNA; index of number of cells in the bone tissue) were determined by the same methods as in Example 1. In each test group, the determination vas conducted 6 to 8 times and the results were represented by the average value and the standard error. The significant difference was determined by Student's t-test. The result was compared with that of the control. When P value was not higher than 0.01 (**) or not higher than 0.05 (*), the results were statistically significant.

[2] = tested on: metaphysis tissue of the femur (cancellous bone); test: Bone alkaline phosphatase activity in cultured femoral metaphysis tissue pieces; type: cell-based, Wistar male rats; details: for Bone alkaline phosphatase activity: metaphysis tissue, mean ± SE
Experimental: as §1
The expression level of alkaline phosphatase, which is the most important enzyme for the acceleration of the calcification of bones, was examined. The tissue pieces cultured in the incubator were washed in 0.25 M sucrose solution, then pulverized in 3 ml of 65 mM barbital buffer (pH 7-4) and treated with ultrasonic waves. The resultant liquid was centrifuged. The supernatant, as the enzyme solution, was determined by a method of Walter ad Schutt in Method of Enzymatic Analysis, Vol. 1-2, p. 856, Academic Press, New York, 1965). Namely, this method was carried out as follows: p-nitrophenylphosphoric acid was used as the substrate. 0.05 ml of the enzyme solution was added to 2 ml of diethanolamine buffer (pH 9.8). After the incubation at 37° C. for 30 minutes, 10 ml of 0.05 N NaOH was added to the mixture. The absorbance (405 nm) was determined with a spectrophotometer to determine bone alkaline phosphatase activity of a bone remedy or a compound known to be effective for the bones.
as §2

[3] = Table 2 (protein synthesis inhibitor experiment), 10^−6 M (each agent), n=6
[4] = β-cryptoxanthin 10^−6 M with cycloheximide

Structure (SMILES): CC1=C(/C=C/C(C)=C/C=C/C(C)=C/C=C/C=C(C)/C=C/C=C(C)/C=C/C2=C(C)C[C@@H](O)CC2(C)C)C(C)(C)CCC1 [β-cryptoxanthin]
- Effect on DNA level in the metaphysis tissue (in words) ([1]; 10^−7 to 10^−5 M, 48 h culture, vs control): significantly increased
- Bone DNA level [1, 3]: 5.401 ± 0.188* mg/g bone wet weight
- Bone DNA level ([1]; 10^−5 M, 48 h culture): 5.584 ± 0.530** mg/g bone wet weight
- Bone DNA level ([1]; 10^−6 M, 48 h culture): 5.359 ± 0.207** mg/g bone wet weight
- Bone DNA level ([1]; 10^−7 M, 48 h culture): 4.170 ± 0.057** mg/g bone wet weight
- Bone DNA level ([1]; 10^−8 M, 48 h culture): 3.276 ± 0.207 mg/g bone wet weight
- Bone DNA level in metaphysis tissue increased by β-cryptoxanthin: change in the presence of cycloheximide (in words) [1, 4]: significantly lowered
- Effect on the enzymatic (alkaline phosphatase) activity in the metaphysis (in words) ([2]; 10^−7 to 10^−4 M (so in the source), 48 h culture, vs control): increase
- Bone alkaline phosphatase activity [2, 3]: 1168.2 ± 30.1* nmol/min/mg protein
- Bone alkaline phosphatase activity ([2]; 10^−5 M, 48 h culture): 1229.5 ± 40.9** nmol/min/mg protein
- Bone alkaline phosphatase activity ([2]; 10^−6 M, 48 h culture): 1150.9 ± 26.8** nmol/min/mg protein
- Bone alkaline phosphatase activity ([2]; 10^−7 M, 48 h culture): 945.2 ± 5.4** nmol/min/mg protein
- Bone alkaline phosphatase activity ([2]; 10^−8 M, 48 h culture): 918.4 ± 4.3 nmol/min/mg protein
- Bone alkaline phosphatase activity in metaphysis tissue increased by β-cryptoxanthin: change in the presence of cycloheximide (in words) [2, 4]: significantly lowered
